This note sets out measurements from US20010047021A1, “Cancer treatment” (The Procter & Gamble Company, priority 2000, published 2001).

The test system of this experiment is SK-OV-3 tumor lines. The experiment can be described thus: SK-OV-3 tumor in nude mouse, average tumor weight. The experiment is classed as in vivo. As for the experimental part:
2-Methoxycarbonylamino-4,5,6,7-tetrafluorobenzimidazole (tetrafluoro) was used to treat SK-OV-3 tumor lines in nude mouse. The average tumor weight is reported in mg. The control was the vehicle given twice a week and also 5 times a week. The 2-methoxycarbonyl-amino-4,5,6,7- tetrafluorobenzimidazole was also given on this same schedule. Both compounds were administered by oral gavage.

In the case of `COC(=O)Nc1nc2c(F)c(F)c(F)c(F)c2[nH]1` [Tetrafluoro, 2-Methoxycarbonylamino-4,5,6,7-tetrafluorobenzimidazole], the “Average Tumor Weight” value (2000 mg/kg 2x wkly, oral gavage, day 1) worked out at 58.5 mg; the “Average Tumor Weight” value (2000 mg/kg 2x wkly, oral gavage, day 5) was 108.1 mg; the “Average Tumor Weight” value (2000 mg/kg 2x wkly, oral gavage, day 9) was determined as 246.8 mg; the “Average Tumor Weight” value (2000 mg/kg 2x wkly, oral gavage, day 12) came out at 476.2 mg; the “Average Tumor Weight” value (2000 mg/kg 2x wkly, oral gavage, day 15) was determined as 770 mg; the “Average Tumor Weight” value (2000 mg/kg qdx5, oral gavage, day 1) is on record as 59.1 mg. The “Average Tumor Weight” value stood at 106.2 mg (2000 mg/kg qdx5, oral gavage, day 5); 255.8 mg (2000 mg/kg qdx5, oral gavage, day 9); 381.7 mg (2000 mg/kg qdx5, oral gavage, day 12); 781.2 mg (2000 mg/kg qdx5, oral gavage, day 15); 59.5 mg (4000 mg/kg 2x wkly, oral gavage, day 1); 98.6 mg (4000 mg/kg 2x wkly, oral gavage, day 5). For the same compound, the “Average Tumor Weight” value runs as follows: (4000 mg/kg 2x wkly, oral gavage, day 9) 204 mg; (4000 mg/kg 2x wkly, oral gavage, day 12) 336.6 mg; (4000 mg/kg 2x wkly, oral gavage, day 15) 672.9 mg; (4000 mg/kg qdx5, oral gavage, day 1) 59.5 mg; (4000 mg/kg qdx5, oral gavage, day 5) 66.1 mg; (4000 mg/kg qdx5, oral gavage, day 9) 150.8 mg. Besides, the “Average Tumor Weight” value is, setting by setting: (4000 mg/kg qdx5, oral gavage, day 12) 160.7 mg; (4000 mg/kg qdx5, oral gavage, day 15) 315.8 mg. Moreover, the “effect on the growth of the tumor” value (SK-OV-3 tumor, nude mouse, oral gavage) is “dose responsive effect”.
